Reference: patent US11542475B2, “3D microphysiologic system” (Northwestern University, priority 2014, dated 2023)

Tests used:
Format in all cases: cell-based
[1] = test system: human fallopian tube epithelium; assay: Fallopian epithelia cilia beating quantification; details: 7 days culture; P4 added to E2
Method: Human fallopian tissue was obtained from routine hysterectomies from women in their reproductive years (ages range from 26 to 50 years old) and who had not undergone exogenous hormonal treatment for at least three months prior to surgery. Informed consent was obtained from each patient and approval granted by the ethics committee of the Northwestern University. Human fallopian tissue was kept in the DMEM/F12 medium with 10% FBS on ice and processed within 24 hours. The tissue was washed with warm PBS solution two times before being transferred into warm dissection medium (Liebowitz 15 with 0.5% P/S and 10% FBS). After cleaning connective tissue from outside of the fallopian tissue, the fallopian tube was cut open and the inner epithelia layer was mechanically dissected using forceps. […]
Fallopian epithelia layers were cultured in estradiol (E2) 1 nM, E2 1 nM+progesterone (P4) 10 nM, E2 0.1 nM+P4 50 nM or with solvent only negative control for 7 days. Cilia beating movies were acquired using an Andor Spinning Disk Confocal with 5 ms exposure time and 5 ms readout time. […] The Multiple Kymograph plugin for the NIH ImageJ software was used to quantify cilia beating frequency. In each movie, 8 clusters of cilia were picked for the cilia beating quantification.

[2] = test system: IGF1 secretion by human fallopian epithelium; assay: hIGF1 immunoblot of fallopian epithelium conditioned medium
Method: Human fallopian tissue was obtained from routine hysterectomies from women in their reproductive years (ages range from 26 to 50 years old) and who had not undergone exogenous hormonal treatment for at least three months prior to surgery. Informed consent was obtained from each patient and approval granted by the ethics committee of the Northwestern University. Human fallopian tissue was kept in the DMEM/F12 medium with 10% FBS on ice and processed within 24 hours. The tissue was washed with warm PBS solution two times before being transferred into warm dissection medium (Liebowitz 15 with 0.5% P/S and 10% FBS). After cleaning connective tissue from outside of the fallopian tissue, the fallopian tube was cut open and the inner epithelia layer was mechanically dissected using forceps. […] Tissue was cultured on 0.4 μm pore Millicell inserts (PICM03050, EMD Millipore Co, Billerica, Mass., USA) twelve-well plates with culture medium in a 37° C. and 5% CO2 incubator. Estrogen (E2) and progesterone (P4) used in tissue culture experiments were purchased from Sigma (St. Louis, Mo.).
Cultured human fallopian epithelia layers were homogenized with a minipestle in ice-cold lysis buffer (20 mM Tris-HCl, pH 8.0, 137 mM NaCl, 10% glycerol, 1% NP-40, 2 mM EDTA). Lysate normalized for protein content was loaded into NuPAGE 4-12% gradient Bis-Tris precast SDS-PAGE gels and transferred to a nitrocellulose membrane (Life Technologies, Carlsbad, Calif., USA). Blots were probed by polyclonal anti-OVGP1 antibody (LsBio, Cambridge, Mass.) overnight in 4° C. followed by anti-rabbit secondary antibody conjugated to horseradish peroxidase (Zymed, San Francisco, Calif.). Proteins were detected by ECL primer (GE HealthCare Life Sciences, Pittsburgh, Pa.) and exposed to X-ray film (Kodak, Rochester, N.Y.). The same blot was stripped using stripping buffer (Thermo Scientific, Hanover Park, Ill.) and re-probed with monoclonal anti-α-tubulin (Sigma, St. Louis, Mo.) followed by an anti-mouse secondary antibody conjugated to horseradish peroxidase. NIH ImageJ Imaging Software was used to quantify the density of western blot bands. Conditioned medium from fallopian epithelia cultures was collected and probed via western blot analysis using a polyclonal anti-hIGF1 antibody (abcam, Cambridge, Mass.). The blot was detected by the same method described above.
Fallopian epithelia layers cultured on […] inserts were pre-cultured in the alpha-MEM with 0.3% BSA, ITS and 1% P/S medium for two days. Cell culture medium was collected for the glucose ELISA assay (abcam, Cambridge, Mass.). Medium was diluted 1:500 and ELISA was performed according to the protocol provided by the kit. […]

[3] = test system: p53 stabilization in FTE; assay: 3D human fimbriae culture: p53 immunohistochemistry; details: 2 and 7 days treatment, n=8
Method: Tissues were micro-dissected in alpha-MEM (Gibco, Carlsbad, Calif.) with 1% penicillin-streptomycin (Invitrogen, Carlsbad, Calif.). Individual fimbriae were separated into ˜50 mm^3 pieces. A portion of the tissue was fixed in 2% paraformaldehyde for use as an uncultured control. For optimization studies, fimbriae were cultured without matrix, encapsulated in 0.5% alginate, or encapsulated in 0.5% alginate with 1 mg/ml collagen and 0.1% fibronectin, as previously described for murine cultures (King et al. J Vis Exp. 2011.; herein incorporated by reference in its entirety). For subsequent treatments, 0.5% alginate encapsulated fimbriae were randomly assigned to treatment groups, with at least five fimbriae per condition, per patient, in a 24-well plate containing alpha-MEM and 1% penicillin-streptomycin. […] Prior to fixation, fimbriae were labeled with 10 μM bromodeoxyurine (BrdU, Sigma-Aldrich) for 24 hours to denote proliferating cells. Fimbriae cultures were fixed (2% paraformaldehyde) followed by dehydration in ethanol and xylene, and embedment in paraffin.
Sections (5 μm) were cut and stained via hematoxylin and eosin for morphological analysis or immunohistochemistry was performed to localize proteins of interest as previously described (King et al. Endocr Relat Cancer. 2011. 18:627-42.; herein incorporated by reference in its entirety). Slides were rehydrated through an ethanol gradient, prior to 0.1M sodium citrate retrieval and peroxidase block. […]
Immunohistochemistry images were taken via a Nikon E600 microscope, DXM1200 digital camera and NIS Elements software (Nikon Instruments, Melville, N.Y.). […] BrdU sections were imaged and epithelial cells (CK8 positive) were quantified for proliferation via ImageJ software (NIH, Bethesda, Md.). At least three fimbriae with 200 or more FTE were quantified for each treatment. Analysis of p53 staining was similar, with at least three fimbriae per treatment, per patient analyzed. Samples with p53 expression were quantified utilizing adjacent sections stained for the secretory cell marker PAX8 in a qualitative manner as described.

Structure (SMILES): C[C@]12CC[C@@H]3c4ccc(O)cc4CC[C@H]3[C@@H]1CC[C@@H]2O [E2, estradiol]
- cilia beating frequency (CBF) [1]: significantly increased
- IGF1 secretion ([2]; 7 days culture, 1 nM E2, P4 added to E2): induced
- IGF1 secretion ([2]; 28 days stepwise E2 and P4 treatment, P4 in the presence of E2): stimulated
- p53 stabilization [3]: no factor notably induced p53 stabilization
